In ChEMBL document CHEMBL4651402, “Screening of ~5500 FDA-approved drugs and clinical candidates for anti-SARS-CoV-2 activity” (2021):

Tested on: SARS-CoV-2
Assay: microbe, parasite or virus in culture
Conditions: Severe acute respiratory syndrome coronavirus 2, Vero C1008, 48 h

| SMILES | IC50 | IC50 (read-out: pIC50 (converted)) |
| --- | --- | --- |
| CCOC(C(=O)OCCN(C)C)(c1ccccc1)c1ccccc1 [DIMENOXADOL] | > 20 µM | > 20 µM |
| C=CCc1ccccc1OCC(O)CNC(C)C (stereo not drawn) [ALPRENOLOL] | > 20 µM | > 20 µM |
| CN[C@H]1[C@H](O)[C@H](O[C@@H]2[C@@H](O)[C@H](O[C@H]3O[C@H]([C@@H](C)O)[C@@H](O)[C@H](O)[C@H]3N)[C@@H](N)C[C@H]2N)OC[C@@]1(C)O | > 20 µM | > 20 µM |
| C=C(C)[C@H]1CN[C@H](C(=O)O)[C@H]1CC(=O)O [KAINIC ACID] | > 20 µM | > 20 µM |
| CC(C(=O)O)c1ccc(N2Cc3ccccc3C2=O)cc1 (stereo not drawn) [INDOPROFEN] | > 20 µM | > 20 µM |
| C[C@@]12CCCCC[C@@H](Cc3ccc(O)cc31)[C@@H]2N [DEZOCINE] | > 20 µM | > 20 µM |
| CS(=O)(=O)c1ccc2c(c1)N(CCCN1CCC(C(N)=O)CC1)c1ccccc1S2 [METOPIMAZINE] | > 20 µM | > 20 µM |
| O=C(O)[C@@H]1CSCN1 [THIOPROLINE] | > 20 µM | > 20 µM |
| O=C(O)Cc1ccc(OCCNCC(O)c2ccccc2)cc1 (stereo not drawn) | > 20 µM | > 20 µM |
| COc1ccccc1CNCCCCCCNCCCCCCCCNCCCCCCNCc1ccccc1OC [METHOCTRAMINE] | > 20 µM | > 20 µM |
| CCC1(CC(=O)O)OCC(Cc2ccccc2)c2c1[nH]c1ccccc21 (stereo not drawn) [PEMEDOLAC] | > 20 µM | > 20 µM |
| C[C@@H](C(=O)O)c1ccc(-c2ccccc2)c(F)c1 [TARENFLURBIL] | > 20 µM | > 20 µM |
| OCC(O)COc1ccc(Cl)cc1 (stereo not drawn) | > 20 µM | > 20 µM |
| C[N+]1(CCC(C(N)=O)(c2ccccc2)c2ccccc2)CCCCC1 | > 20 µM | > 20 µM |
| CCO[C@@H]1OC(=O)C[C@@H]1NC(=O)[C@@H]1CCCN2C(=O)CC[C@H](NC(=O)c3nccc4ccccc34)C(=O)N12 | > 20 µM | > 20 µM |
| O=C(CCCCCCNC(=O)c1cnc(N(c2ccccc2)c2ccccc2)nc1)NO [RICOLINOSTAT] | > 20 µM | > 20 µM |
| CSc1nc2cc(Cl)c(Oc3cccc(Cl)c3Cl)cc2[nH]1 [TRICLABENDAZOLE] | > 20 µM | > 20 µM |
| CCOC(=O)[C@H](CCc1ccccc1)N[C@@H](C)C(=O)N1Cc2cc(OC)c(OC)cc2C[C@H]1C(=O)O [MOEXIPRIL] | > 20 µM | > 20 µM |
| CN(C(=O)c1ccc(F)cc1C(F)(F)F)C1CCN(c2nnc(-c3ccnn3C)c3ccccc23)CC1 [TALADEGIB] | > 20 µM | > 20 µM |
| CCCCCCc1ccc(O)cc1O [HEXYLRESORCINOL] | > 20 µM | > 20 µM |
| CC(=O)Nc1ccc(C(=O)NC(C)(C)C)cc1 [CP1-1189] | > 20 µM | > 20 µM |
| CCOC(=O)C1=C(C)NC(C)=C(C(=O)OC)C1c1cccc([N+](=O)[O-])c1 (stereo not drawn) [NITRENDIPINE] | > 20 µM | > 20 µM |
| Nc1cccc2c1CN(C1CCC(=O)NC1=O)C2=O (stereo not drawn) [LENALIDOMIDE] | > 20 µM | > 20 µM |
| Cc1c(-c2c(F)cc(C(N)=O)c3[nH]c4c(c23)CC[C@H](C(C)(C)O)C4)cccc1-n1c(=O)c2cccc(F)c2n(C)c1=O [BMS-986142] | > 20 µM | > 20 µM |
| O=C(NCC1CCOCC1)c1cnc(Nc2ccc(Cl)cc2Cl)nc1C(F)(F)F [GW842166X] | > 20 µM | > 20 µM |
| Cc1ncc([N+](=O)[O-])n1CCOC(N)=O [BAMNIDAZOLE] | > 20 µM | > 20 µM |
| CNC(=O)c1cc(COc2nnc(Nc3ccc(Cl)cc3)c3ccoc23)ccn1 [TELATINIB] | > 20 µM | > 20 µM |

| SMILES | IC50 | IC50 (read-out: pIC50 (converted)) |
| --- | --- | --- |
| NC[C@H]1O[C@H](O[C@H]2[C@H](O)[C@@H](O)[C@H](N)C[C@@H]2N)[C@H](N)[C@@H](O)[C@@H]1O [NEAMINE] | > 20 µM | > 20 µM |
| Nc1nc(=O)n([C@@H]2C=C[C@H](CO)O2)cc1F [ELVUCITABINE] | > 20 µM | > 20 µM |
| C=C(CC)C(=O)c1ccc(OCC(=O)O)c(Cl)c1Cl [ETHACRYNIC ACID] | > 20 µM | > 20 µM |
| COc1c(N2C[C@@H]3CCCN[C@@H]3C2)c(F)cc2c(=O)c(C(=O)O)cn(C3CC3)c12 [MOXIFLOXACIN] | > 20 µM | > 20 µM |
| O=C(/C=C/c1ccc2c(c1)OCO2)N1CCCCC1 [ILEPCIMIDE] | > 20 µM | > 20 µM |
| CC12CCCC1C1CC[C@H]3CCCC[C@]3(C)C1CC2 (stereo partly drawn) | > 20 µM | > 20 µM |
| CC(C)(C)c1cc(C(=O)c2cccs2)cc(C(C)(C)C)c1O [PRIFELONE] | > 20 µM | > 20 µM |
| Cc1ncc(COP(=O)(O)O)c(C=O)c1O [PYRIDOXAL PHOSPHATE ANHYDROUS] | > 20 µM | > 20 µM |
| O=C1c2ccccc2C(=O)c2c1ccc(O)c2O [ATHRAQUINONES A] | > 20 µM | > 20 µM |
| C#C[C@]1(O)CC[C@H]2[C@@H]3CCC4=CC(=O)CC[C@]4(C)[C@H]3CC[C@@]21C [ETHISTERONE] | > 20 µM | > 20 µM |
| CNCCCC1(C)C(=O)N(c2ccccc2)c2ccccc21 (stereo not drawn) [AMEDALIN] | > 20 µM | > 20 µM |
| O=C(NC1CCCCC1)NS(=O)(=O)c1ccc2c(c1)CCC2 [GLYHEXAMIDE] | > 20 µM | > 20 µM |
| Cc1nc(N(C)C(=O)Cc2ccc(-c3ccccn3)cc2)sc1S(N)(=O)=O | > 20 µM | > 20 µM |
| CC(Oc1c(Cl)cccc1Cl)C1=NCCN1 (stereo not drawn) [LOFEXIDINE] | > 20 µM | > 20 µM |
| c1ccc2c(SC3=NCCN3)c[nH]c2c1 [TINAZOLINE] | > 20 µM | > 20 µM |
| Cc1ccc2c(c1)CC(=O)c1cc(C(C)C(=O)O)ccc1O2 (stereo not drawn) [BERMOPROFEN] | > 20 µM | > 20 µM |
| C=CCC1(C(C)CCC)C(=O)NC(=S)NC1=O (stereo not drawn) [THIAMYLAL] | > 20 µM | > 20 µM |
| CC(=O)N[C@H]1C[C@H]2CC[C@@H](C1)N2Cc1ccc(Oc2nc3ncccc3s2)cc1 | > 20 µM | > 20 µM |
| CCN1CCN(Cc2ccc(-c3cc4c(N[C@H](C)c5ccccc5)ncnc4[nH]3)cc2)CC1 [AEE-788] | > 20 µM | > 20 µM |
| CC(C)OC(=O)[C@H](C)NP(=O)(OC[C@H]1O[C@@H](n2ccc(=O)[nH]c2=O)[C@](C)(Cl)[C@@H]1O)Oc1ccccc1 (stereo partly drawn) | > 20 µM | > 20 µM |
| CC(=O)NC(CC(=O)O)C(=O)O (stereo not drawn) | > 20 µM | > 20 µM |
| CCc1oc2ccccc2c1C(=O)c1cc(Br)c(O)c(Br)c1 [BENZBROMARONE] | > 20 µM | > 20 µM |
| [N-]=[N+]=N[C@]1(CO)O[C@@H](n2ccc(N)nc2=O)[C@@H](O)[C@@H]1O | > 20 µM | > 20 µM |
| O=C(CC1NCCCC1O)Cn1cnc2cc(Br)c(Cl)cc2c1=O (stereo not drawn) [HALOFUGINONE] | > 20 µM | > 20 µM |
| O[C@@H](c1cc(C(F)(F)F)nc2c(C(F)(F)F)cccc12)[C@H]1CCCCN1 [(S,R)-MEFLOQUINE] | > 20 µM | > 20 µM |
| COc1cc(F)c(C(C)C)cc1-c1ccc(C(F)(F)F)cc1CN1C(=O)O[C@H](c2cc(C(F)(F)F)cc(C(F)(F)F)c2)[C@@H]1C [ANACETRAPIB] | > 20 µM | > 20 µM |
| C[N+](C)(CCOc1ccccc1)Cc1ccccc1 [BEPHENIUM] | > 20 µM | > 20 µM |
